# Reference: patent publication US6399773B1, “Compounds derived from an amine nucleus that are inhibitors of IMPDH enzyme” (Bristol-Myers Squibb Co., priority 1998, dated 2002)
row,melting point [°C],Structure (SMILES)
1,212 to 215,"COc1cc(Nc2ncc(-c3ccccc3)o2)ccc1-c1cnco1 [Example 34, N-[3-Methoxy-4-(5-oxazolyl)phenyl]-5-phenyl-2-oxazolamine]"
2,271 to 274,"COc1cc(Nc2ncc(-c3ccccc3C(=O)O)o2)ccc1-c1cnco1 [Example 80, 2-[2-[[3-Methoxy-4-(5-oxazolyl)phenyl]amino]-5-oxazolyl]benzoic acid]"
3,179 to 181,"COc1cc(Nc2ncc(-c3ccccc3N(C)C(=O)CN3CCOCC3)o2)ccc1-c1cnco1 [Example 79, N-[2-[2-[[3-Methoxy-4-(5-oxazolyl)phenyl]amino]-5-oxazolyl]phenyl]-N-methyl-4-morpholineacetamide]"

# The remaining lines, values behind:
row,Structure (SMILES),melting point [°C]
1,"COc1cc(Nc2cccc(-c3ccccc3)c2)ccc1-c1cnco1 [Example 29, N-[3-Methoxy-4-(5-oxazolyl)phenyl][1,1′-biphenyl]-3-amine]",171 to 173
2,"COc1cc(Nc2cc(-c3ccccc3)on2)ccc1-c1cnco1 [Example 31, N-[3-Methoxy-4-(5-oxazolyl)phenyl]-5-phenyl-3-isoxazolamine]",173 to 175
3,"COc1cc(Nc2nsc(-c3ccccc3)n2)ccc1-c1cnco1 [Example 30, N-[3-Methoxy-4-(5-oxazolyl)phenyl]-5-phenyl-1,2,4-thiadiazol-3-amine]",260 to 261
